The supplement of paper PMC10307832

Experiments:
Test in all cases: relative viability (nuclei count vs DMSO), 5 days (fraction); higher = more cells survive
[1] = compound: COc1cc2ncn(-c3cc(OCc4ccccc4C(F)(F)F)c(C(N)=O)s3)c2cc1OC + NC(=O)Nc1cc(-c2cccc(F)c2)sc1C(=O)N[C@H]1CCCNC1 [AZD7762] (partner 0.2 µM)
Method in brief: (§1)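 A single step with final 0.05% Triton X-100, 1% formaldehyde and 1 ug/ml Hoechst fixed the cells and stained nuclei 5 days after treatment. Lung cancer cell lines in 1536-well plates had been treated by pin tool the day after seeding with one drug alone or a fixed anchor-drug dose plus five library-drug doses (not always all listed) in √10 steps, and nuclei were counted on 4× images. Relative viability is the ratio of nuclei in treated wells to nuclei in vehicle wells, taken as the median of duplicate plates.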

[2] = compound: COc1cc2ncn(-c3cc(OCc4ccccc4C(F)(F)F)c(C(N)=O)s3)c2cc1OC + Nc1ncn([C@H]2C[C@H](O)[C@@H](CO)O2)c(=O)n1 [Decitabine] (partner 2 µM)
Method in brief: as §1

[3] = compound: COc1cc2ncn(-c3cc(OCc4ccccc4C(F)(F)F)c(C(N)=O)s3)c2cc1OC + O=C(c1cc(Cc2n[nH]c(=O)c3ccccc23)ccc1F)N1CCN(C(=O)C2CC2)CC1 [Olaparib] (partner 8 µM)
Method in brief: as §1

[4] = compound: COc1cc2ncn(-c3cc(OCc4ccccc4C(F)(F)F)c(C(N)=O)s3)c2cc1OC + CS(=O)(=O)CCNCc1ccc(-c2ccc3ncnc(Nc4ccc(OCc5cccc(F)c5)c(Cl)c4)c3c2)o1 [Lapatinib] (partner 2 µM)
Method in brief: as §1

Row | Cell Line | relative viability ([1]; first compound 0.05 µM) | relative viability ([1]; first compound 0.1581 µM) | relative viability ([1]; first compound 0.5 µM) | relative viability ([1]; first compound 1.581 µM) | relative viability ([1]; first compound 5 µM) | relative viability ([2]; first compound 0.05 µM) | relative viability ([2]; first compound 0.1581 µM) | relative viability ([2]; first compound 0.5 µM) | relative viability ([2]; first compound 1.581 µM) | relative viability ([2]; first compound 5 µM) | relative viability ([3]; first compound 0.05 µM) | relative viability ([3]; first compound 0.1581 µM) | relative viability ([3]; first compound 0.5 µM) | relative viability ([3]; first compound 1.581 µM) | relative viability ([3]; first compound 5 µM) | relative viability ([4]; first compound 0.05 µM) | relative viability ([4]; first compound 0.1581 µM) | relative viability ([4]; first compound 0.5 µM) | relative viability ([4]; first compound 1.581 µM) | relative viability ([4]; first compound 5 µM)
1 | NCI-H2405 | 0.793 | 0.703 | 0.446 | 0.262 | 0.263 | 0.754 | 0.704 | 0.506 | 0.373 | 0.324 | 0.795 | 0.809 | 0.326 | 0.312 | 0.331 | 1.12 | 0.882 | 0.669 | 0.402 | 0.323
2 | NCI-H3122 | 1.07 | 0.81 | 0.359 | 0.133 | 0.144 | 0.373 | 0.426 | 0.193 | 0.14 | 0.103 | 0.682 | 0.585 | 0.149 | 0.141 | 0.146 | 1.04 | 0.58 | 0.479 | 0.224 | 0.244
3 | PC-3 [JPC-3] | 0.833 | 0.741 | 0.597 | 0.238 | 0.252 | 0.779 | 0.842 | 0.653 | 0.396 | 0.43 | 0.955 | 1.01 | 0.588 | 0.424 | 0.316 | 0.443 | 0.508 | 0.37 | 0.227 | 0.263
4 | PC-14 | 0.371 | 0.405 | 0.334 | 0.113 | 0.0718 | 0.272 | 0.195 | 0.141 | 0.0475 | 0.0694 | 0.216 | 0.246 | 0.0786 | 0.0384 | 0.0696 | 0.33 | 0.353 | 0.318 | – | 0.278
5 | RERF-LC-KJ | 1.01 | 1.59 | 0.849 | 0.761 | 0.814 | 0.802 | 0.633 | 0.27 | 0.198 | 0.25 | 0.937 | 0.945 | 0.24 | 0.233 | 0.253 | 0.939 | 0.987 | 0.839 | – | 0.689
